In patent publication US10729742B2, “Screening method for the identification of agents capable of activating CD4+CD25+ regulatory T-cells through interactions with the HIV-1 GP120 binding site on CD4” (priority 2007, dated 2020):

Legend:
CD4+CD25+ Treg cells [1] = test: Coculture suppression assay B: CD8+ T effector cell proliferation (3H-Tdr incorporation) with CD4+CD25+ Treg cells and syngenic T cell-depleted PBMC; type: cell-based, human; settings: for proliferation of CD8+ T cells co-cultured with CD4+CD25+ Treg cells and inactivated syngenic CD3-depleted PBMC: FIG. 1 black bars, compared with CD8+ T cells without Tregs, 3H-Tdr incorporation 4 days later, effect dose-dependent; for proliferation of CD4+CD25+ Tregs: FIG. 1 white bars
Excerpt: In order to study the influence of a substance, e.g. HIV-1 gp120 which can bind at least to the epitope given in SEQ ID NO.:1 exclusively on the suppressive function of CD4^+CD25^+ Treg cells, we developed a co-culture assay which contained CD8^+ T cells as effectors to exclude any influence of this substance on the latter (CD8^+ T cells don't express CD4). […] To evaluate the influence of e.g. HIV-1 gp120 on the function of CD4^+CD25^+ Treg cells, isolated CD4^+CD25^+ Treg cells (2.1.4) are co-cultured with syngenic, T cell-depleted and irradiated (50 Gy) PBMC 2.1.6) and allogeneic CD8^+ T effector cells (2.1.3) in presence of varying concentrations (0.1-10 μg/ml) of different HIV-1 gp120 preparations. Briefly, 1×10^5 CD4^+CD25^+ Treg cells are incubated with 3×10^5 syngenic T cell-depleted PBMC in the presence or absence of varying amounts of HIV-1 gp120. Stimulation with 0.5 μg/ml anti-CD3 monoclonal antibody (OKT-3, ebioscience, USA) serves as positive control. No additional stimulation represents negative control. Either immediately or 24 h. later, 1×10^5 allogeneic CD8^+ T effector cells are added to the cultures and proliferation is determined after additional 72 h. by ^3H-Tdr incorporation (37 kBq/well). Functional activation of CD4^+CD25^+ Treg cells via interaction with the epitope as set forth in SEQ ID NO:1 result in suppressed proliferation of CD8^+ T effector cells and therewith identifies a substance as a Treg cell activator (Data see FIG. 1).
After 3-4 days of incubation of cells in assays provided under (2.2.1), (2.2.2) and (2.2.3) T cell proliferation is measured. For additional 16 h., cells are pulsed with ^3H-Tdr (37 kBq/well, MB Biomedicals), and incorporated radioactivity is measured by using a liquid scintillation counter (Betaplate, Wallac/PerkinElmer). In the absence of a Treg cell activating compound, resting Treg cells cannot inhibit the proliferation of CD4^+ T helper cells or CD8^+ T effector cells (negative control). In contrast, in presence of an activating CD4-binding compound or anti-CD3 monoclonal antibody (positive control) the proliferation of CD4^+ T helper cells or CD8^+ T effector cells is suppressed by CD4^+CD25^+ Treg cells. A reduced incorporated radioactivity resembles suppressed proliferation and identifies CD4^+ T helper cell or CD8^+ T effector cell inhibition and therewith identifies that a CD4^+CD25^+ Treg cell has been activated.
In order to study the influence of HIV-1 gp120 exclusively on the function of CD4^+CD25^+ Treg cells, we developed a coculture assay which contained CD8^+ T cells as effectors to exclude any influence of HIV-1 gp120 on the latter. Therefore, isolated CD4^+CD25^+ Treg cells are cocultured with T cell-depleted syngenic PBMC and allogeneic CD8^+ T effector cells. […] (All HIV-1 gp120 proteins: Protein Sciences Corp. Meriden, USA).
1×10^5 isolated CD25^+ Treg cells were incubated with 3×10^5 irradiated (50 Gy) syngenic T cell-depleted PBMC and 1×10^5 allogeneic CD8^+ T effector cells in presence/absence of different HIV-1 gp120 preparations, addition of 0.5 μg/ml anti-CD3 (OKT-3) served as positive control. Proliferation was determined by ^3H-Tdr-Incorporation 4 days later.
Grey bars represent proliferation of CD8^+ T cells and inactivated syngenic CD3-depleted PBMC, white bars represent the proliferation of CD4^+CD25^+ Tregs and the black bars represent the proliferation of CD8^+ T cells co-cultured with CD4^+CD25^+ Tregs cells and inactivated syngenic CD3-depleted PBMC. Due to inactivation PBMC don't contribute to proliferation of the samples.

CD4+CD25+ Treg cells [2] = test: Cytosolic cAMP measurement in CD4+CD25+ Treg cells (cAMP-specific ELISA); type: cell-based, human; settings: FIG. 2; 1 μg/ml, 16 hours of stimulation, 1×10^6 T cells
Method: Stimulation of Treg cells results in strong increase of cytosolic (i.e. intracellular) cAMP. Therefore, the analysis of cAMP in Treg cells is an additional method to determine whether a substance which can interfere with HIV-1 gp120 binding to CD4 epitope of a CD4-positive cell can activate a Treg cell. In this assay freshly isolated CD4^+CD25^+ Treg cells (according to 2.1.4) (1×10^5-1×10^6/well) are incubated with anti-CD3 monoclonal antibody (OKT-3; 0.5 μg/ml) or HIV-1 gp120 (0.1-10 μg/ml; Protein Science Corp., Meriden, Conn., USA) or left untreated for 16 hours. To assess cytosolic cAMP-concentrations a cAMP-specific ELISA (Parameter™ Cyclic AMP Assay, Cat. No. KGE002; R&D Systems, Wiesbaden, Germany) is applied. […]
Activation of Treg cells by the test compound results directly in an increase of cytosolic cAMP. In the absence of a Treg cell activating compound no increase of cAMP in CD4^+CD25^+ Treg cells is detected (negative control). […]
CD4^+CD25^+ regulatory T cells (CD25) are left untreated (0) or stimulated with an anti-CD3 monoclonal Antibody (OKT-3; 1 μg/ml) or HIV-1 gp120 (1 μg/ml). Upon 16 hours of stimulation the CD4^+CD25^+ regulatory T cells are lysed (1×10^7/ml) and the cytosolic cAMP concentration of 1×10^6 T cells is assessed using a cAMP-specific ELISA. […]

NOD-Scid mice [3] = test: GVHD induced by transfer of human PBMC into NOD-Scid mice; lack of weight increase/weight loss as score; type: in vivo; settings: FIG. 4; 5 μg HIV gp120 injected together with PBMC, intraperitoneal, three to six days old mice
Excerpt: NOD-Scid mice, non-obese diabetic/severe combined immunodeficient mice, (mutant allele: Prkdc^Scid strain: NOD.CB 17-Prkdc^Scid, (Shultz et al. 1995)) from the Central Laboratory Animal Facility of the University of Mainz (also purchasable from The Jackson Laboratory via Charles River Laboratories, Germany) are used as an animal model for transfer of peripheral human immune cells and thus for the in vivo analysis of immuno-regulatory interactions (Hesselton et al. 1995). Human peripheral blood mononuclear cells (PBMC) transferred into NOD-Scid mice induce an accelerating […] graft-versus-host disease (GVHD). While the number of cells transferred determines the onset of this disease, the co-transfer of human Tregs can gradually delay or prevent the disease. This model system further allows the study of human Treg function. To induce a GVHD NOD-Scid mice at the age of three to six days after birth are intraperitoneally injected with 1×10^7 to 3×10^7 human PBMC (isolation of human PBMC according to 2.1.1). GVHD is induced by immunological (xenogenic) activation of human effector T cells in the PBMC fraction injected into the mice. NOD-Scid mice, however, are not able to react against the grafted human PBMC. […]

NOD-Scid mice [4] = test: GVHD induced by transfer of human CD25-depleted PBMC into NOD-Scid mice; lack of weight increase/weight loss as score; type: in vivo; settings: FIG. 5; 5 μg HIV gp120 injected together with CD25-depleted PBMC, intraperitoneal
Excerpt: NOD-Scid mice at the age of three to six days after birth are intraperitoneally injected with 1×10^7 human CD25-depleted PBMC (isolation of human CD25-depleted PBMC according to 2.1.7). GVHD is induced by 1×10^7 human CD25-depleted PBMC at the same magnitude as by transfer of 1×10^7 human non CD25-depleted PBMC into NOD-Scid mice. […] Prevention of GVHD by HIV gp120 or a substance which can interfere with HIV-1 gp120-binding depends on regulatory T cells. Lack of weight increase/weight loss is used as a parameter to score GVHD severity. Data see FIG. 5.
Three to six days old NOD-Scid mice are intraperitoneally injected with 1×10^7 human CD25-depleted PBMC without (circles) or together with 5 μg HIV gp120 (triangles). […] Lack of weight increase/weight loss is used as a parameter to score GVHD severity.

Substance	proliferation of CD8+ T cells co-cultured with CD4+CD25+ Treg cells and inactivated syngenic CD3-depleted PBMC (CD4+CD25+ Treg cells [1])	proliferation of CD4+CD25+ Tregs (CD4+CD25+ Treg cells [1]; 3H-Tdr incorporation)	proliferation of CD8+ T cells and inactivated syngenic CD3-depleted PBMC, without Tregs (CD4+CD25+ Treg cells [1]; FIG. 1 grey bars, 3H-Tdr incorporation)	cytosolic (intracellular) cAMP in Treg cells compared to untreated control (CD4+CD25+ Treg cells [2])	development of GVHD (relative body weight) after transfer of 1×10^7 human PBMC (NOD-Scid mice [3])	development of GVHD (relative body weight) after transfer of 1×10^7 human CD25-depleted PBMC (NOD-Scid mice [4])
HIV-1 gp120 LAV: HIV-1 gp120 preparation LAV, Protein Sciences Corp. Meriden, USA	reduced proliferation	don't show a significant proliferation	–	–	–	–
HIV-1 gp120 CM: HIV-1 gp120 preparation CM, Protein Sciences Corp. Meriden, USA	reduced proliferation	don't show a significant proliferation	–	–	–	–
anti-CD3: anti-CD3 monoclonal antibody (OKT-3, ebioscience, USA), positive control [reference compound]	reduced proliferation	don't show a significant proliferation	strong increased proliferation	increase of intracellular cAMP	–	–
HIV-1 gp120 MN: HIV-1 gp120 preparation MN, Protein Sciences Corp. Meriden, USA	reduced proliferation	don't show a significant proliferation	–	–	–	–
HIV-1 gp120: human immune deficiency virus 1 (HIV-1) glycoprotein gp120, binds CD4; Protein Sciences Corp.	–	–	–	increase of intracellular cAMP	protected from development of GVHD	not protected from development of GVHD
